Key:
amylopsin = target: T1, amylopsin (Homo sapiens, UniProt P04746); assay: Digestion test in vitro, amylopsin
T1 sequence (P04746 16-511): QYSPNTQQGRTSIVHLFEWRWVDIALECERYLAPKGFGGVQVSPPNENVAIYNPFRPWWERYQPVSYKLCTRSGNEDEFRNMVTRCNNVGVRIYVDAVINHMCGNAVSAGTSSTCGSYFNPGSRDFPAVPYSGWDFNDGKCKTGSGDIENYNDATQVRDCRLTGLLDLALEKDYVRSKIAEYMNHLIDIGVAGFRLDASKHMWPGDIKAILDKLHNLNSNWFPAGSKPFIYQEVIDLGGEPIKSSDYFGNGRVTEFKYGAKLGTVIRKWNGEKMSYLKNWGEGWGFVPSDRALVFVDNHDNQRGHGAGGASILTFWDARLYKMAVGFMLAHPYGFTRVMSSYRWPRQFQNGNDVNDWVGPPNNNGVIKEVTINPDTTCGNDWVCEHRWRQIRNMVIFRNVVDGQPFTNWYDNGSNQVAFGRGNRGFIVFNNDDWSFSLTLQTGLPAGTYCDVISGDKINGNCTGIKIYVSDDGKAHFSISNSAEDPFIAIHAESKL

[1] = system: α-isomaltosylglucosaccharide-forming enzyme; assay: Specificity of transfer acceptor (C11 enzyme); assay type: biochemical, Bacillus globisporus C11 strain; details: acceptor 1.6%, PINE-DEX #100 donor 4%, one unit/g donor, 30° C., pH 6.0, 24 hours
Protocol: (§1) A variety of saccharides were tested whether they could be used as transferring-acceptors for the α-isomaltosylglucosaccharide-forming enzyme. A solution of D-glucose, D-xylose, L-xylose, D-galactose, D-fructose, D-mannose, D-arabinose, D-fucose, L-sorbose, L-rhamnose, methyl-α-glucopyranoside, methyl-β-glucopyranoside, N-acetyl-glucosamine, sorbitol, α,α-trehalose, isomaltose, isomaltotriose, cellobiose, gentibiose, maltitol, lactose, sucrose, α-cyclodextrin, β-cyclodextrin, or γ-cyclodextrin was prepared. […] The reaction mixtures after the enzymatic reactions were analyzed on gas chromatography (abbreviated as “GLC” hereinafter) for monosaccharides and disaccharides as acceptors, and on HPLC for trisaccharides and higher saccharides as acceptors to confirm whether these saccharides could be used as their transfer acceptors. In the case of performing GLC, the following apparatuses and conditions were used: […] In the case of HPLC analysis, the apparatuses and conditions used were: HPLC apparatus, “CCPD” commercialized by Tosoh Corporation, Tokyo, Japan; column, “ODS-AQ-303” commercialized by YMC Co., Ltd., Tokyo, Japan; eluent, water at a flow rate of 0.5 ml/min; and detection, a differential refractometer.

salivary amylase = target: T2, salivary amylase (Homo sapiens, UniProt P0DUB6); assay: Digestion test in vitro, salivary amylase
T2 sequence (P0DUB6 16-511): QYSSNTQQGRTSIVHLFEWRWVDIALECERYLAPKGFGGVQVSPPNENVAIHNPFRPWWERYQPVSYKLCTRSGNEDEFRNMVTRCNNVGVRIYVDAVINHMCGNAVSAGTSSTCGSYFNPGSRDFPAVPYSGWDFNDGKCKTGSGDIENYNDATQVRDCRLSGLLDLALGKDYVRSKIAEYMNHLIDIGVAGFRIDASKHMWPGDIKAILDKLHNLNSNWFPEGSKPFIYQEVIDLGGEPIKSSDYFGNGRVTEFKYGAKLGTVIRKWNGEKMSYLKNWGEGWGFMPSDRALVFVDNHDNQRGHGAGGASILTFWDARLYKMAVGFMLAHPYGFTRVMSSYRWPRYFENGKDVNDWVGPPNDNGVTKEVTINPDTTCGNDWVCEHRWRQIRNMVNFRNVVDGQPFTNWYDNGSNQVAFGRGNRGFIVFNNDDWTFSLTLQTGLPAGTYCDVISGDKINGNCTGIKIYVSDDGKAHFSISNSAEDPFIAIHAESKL

[2] = system: α-isomaltosylglucosaccharide-forming enzyme; assay: Specificity of transfer acceptor (C9 enzyme); assay type: biochemical, Bacillus globisporus C9 strain; details: acceptor 1.6%, PINE-DEX #100 donor 4%, one unit/g donor, 30° C., pH 6.0, 24 hours
Protocol: as §1

[3] = Digestion test in vitro, synthetic gastric juice
[4] = system: Small intestinal mucosal enzyme; assay: Digestion test in vitro, small intestinal mucosal enzyme
[5] = system: Escherichia coli IFO 3301; assay: Assimilation test; assay type: cell-based; details: 0.5% saccharide in PYF medium, 37° C., four days, anaerobic
[6] = system: Eubacterium aerofaciens ATCC 25986; assay: Assimilation test; assay type: cell-based; details: 0.5% saccharide in PYF medium, 37° C., four days, anaerobic
[7] = system: Bacteroides vulgatus JCM 5826; assay: Assimilation test; assay type: cell-based; details: 0.5% saccharide in PYF medium, 37° C., four days, anaerobic
[8] = system: Bifidobacterium adolescentis JCM 1275; assay: Assimilation test; assay type: cell-based; details: 0.5% saccharide in PYF medium, 37° C., four days, anaerobic
[9] = system: Lactobacillus acidophilus JCM 1132; assay: Assimilation test; assay type: cell-based; details: 0.5% saccharide in PYF medium, 37° C., four days, anaerobic
[10] = system: Clostridium perfringens JCM 3816; assay type: cell-based; details: 0.5% saccharide in PYF medium, 37° C., four days, anaerobic
[11] = Dehydrating action: moisture absorption on standing at controlled relative humidity; assay type: physicochemical; details: for moisture content (%) by the Karl Fisher method: 25° C., listed as A
Source text: Anhydrous crystalline cyclotetrasaccharide; crystalline cyclotetrasaccharide, monohydrate; anhydrous amorphous cyclotetrasaccharide; and crystalline cyclotetrasaccharide, penta- or hexa-hydrate were experimented in detail on their dehydrating actions, particularly, moisture absorption abilities against saccharides and changes on standing. As a control, anhydrous crystalline α,α-trehalose, anhydrous amorphous α,α-trehalose, and crystalline α,α-trehalose, dihydrate, were used as saccharides. The experiments were as follows: […]

Aspergillus niger = assay: Bacterial contamination of gelatinized starch (gyuhi); details: at 30 days on standing, 25° C., open conditions
Protocol: The mixture was mixed with a mixer and further mixed to homogeneity with two parts by weight of a starch hydrolyzate, shaped, and roughly dried for two hours, while blowing 40° C. hot air to the contents, to obtain “gyuhi” (a rice paste with sugar).

[12] = Dehydration and pulverization of plain yogurt by non-reducing saccharide; design: unit not given here; details: listed as A
Protocol: The anhydrous crystalline cyclotetrasaccharide; crystalline cyclotetrasaccharide, monohydrate; and anhydrous amorphous cyclotetrasaccharide were respectively prepared by the methods in Examples A-1, A-2, and A-3. As the crystalline α,α-trehalose, dihydrate, a commercially available “TREHA®” commercialized by Hayashibara Shoji Inc., Okayama, Japan, was used. The anhydrous crystalline α,α-trehalose and the anhydrous amorphous α,α-trehalose used in this experiment were prepared from a commercialized crystalline α,α-trehalose, dihydrate, using the methods disclosed in Examples for Reference 1 and 3 in Japanese Patent Kokai No. 170,221/94. To four parts by weight of a plain yogurt with a moisture content of about 77% was added either of the above saccharides in an amount of 11 to 16 parts by weight. The resultant mixtures were respectively placed in vats, allowed to stand at 25° C. for 24 hours, and macroscopically observed their change on standing. The judgement was conducted in such a manner of sufficiently dehydrating the resulting mixtures to be solidified, subjected to a pulverizer for pulverization, and evaluated as “◯”, when the solids were easily pulverized; “Δ”, when the dehydration of the resulting mixtures was rather insufficient and the pulverization of solids was substantially difficult, though the resulting mixtures were solidified; and “x”, when the dehydration of the resulting mixtures was insufficient and could not be pulverized by a pulverizer.

[13] = system: α-isomaltosylglucosaccharide-forming enzyme; assay: Influence of metal ions on α-isomaltosylglucosaccharide-forming enzyme activity (C11 strain); assay type: biochemical, Bacillus globisporus C11 strain; details: in the presence of 1 mM metal salt; None = 100
Protocol: (§2) The activities of these enzymes were assayed as follows: The activity of α-isomaltosylglucosaccharide-forming enzyme was assayed by dissolving maltotriose in 100 mM acetate buffer (pH 6.0) to give a concentration of 2% (w/v) for a substrate solution, adding 0.5 ml of an enzyme solution to 0.5 ml of the substrate solution, enzymatically reacting the mixture solution at 35° C. for 60 min, boiling the reaction mixture for 10 min to suspend the enzymatic reaction, and quantifying maltose, among the isomaltosyl maltose and maltose formed in the reaction mixture, on HPLC as described in Experiment 1. One unit activity of the α-isomaltosylglucosaccharide-forming enzyme was defined as the enzyme amount that forms one micromole of maltose per minute under the above enzymatic reaction conditions.
(§3) The influence of metal ions on the activity of α-isomaltosylglucosaccharide-forming enzyme was examined in the presence of 1 mM of any of metal salts according to the assay for the enzyme activity.

[14] = system: α-isomaltosylglucosaccharide-forming enzyme; assay: Influence of metal ions on α-isomaltosylglucosaccharide-forming enzyme activity (C9 strain); assay type: biochemical, Bacillus globisporus C9 strain; details: in the presence of 1 mM metal salt; None = 100
Protocol: as §2, §3

OC[C@@H](O)[C@@H](O[C@H]1O[C@H](CO)[C@@H](O)[C@H](O)[C@H]1O)[C@H](O)[C@@H](O)CO [Maltitol, maltitol]
Decomposition percentage (%) by digestive enzyme (amylopsin): 0.0%
Product of saccharide transferring reaction, Enzyme of C11 strain [1]: ++ (a saccharide-transferred product was detected in an amount of at least ten percent through transferring reaction to acceptor)
Decomposition percentage (%) by digestive enzyme (salivary amylase): 0.0%
Product of saccharide transferring reaction, Enzyme of C9 strain [2]: ++ (a saccharide-transferred product was detected in an amount of at least ten percent through transferring reaction to acceptor)
Decomposition percentage (%) by digestive enzyme [3]: 0.0%
Decomposition percentage (%) by digestive enzyme [4]: 4.0%

O=C[C@H](O)[C@@H](O)[C@H](O)[C@H](O)CO [D-Glucose, D-glucose, reference compound]
Assimilability [5]: + (judged as positive (+) when the post culture had a pH of below 6.0)
Assimilability [6]: + (judged as positive (+) when the post culture had a pH of below 6.0)
Product of saccharide transferring reaction, Enzyme of C11 strain [1]: + (a saccharide-transferred product was detected in an amount of at least one percent but less than ten percent through transferring reaction to acceptor)
Assimilability [7]: + (judged as positive (+) when the post culture had a pH of below 6.0)
Product of saccharide transferring reaction, Enzyme of C9 strain [2]: + (a saccharide-transferred product was detected in an amount of at least one percent but less than ten percent through transferring reaction to acceptor)
Assimilability [8]: + (judged as positive (+) when the post culture had a pH of below 6.0)
Assimilability [9]: + (judged as positive (+) when the post culture had a pH of below 6.0)
Assimilability [10]: + (judged as positive (+) when the post culture had a pH of below 6.0)

OC[C@H]1O[C@@H]2OC[C@H]3O[C@H](O[C@@H]4[C@@H](O)[C@@H](OC[C@H]5O[C@H](O[C@H]([C@H]2O)[C@@H]1O)[C@H](O)[C@@H](O)[C@@H]5O)O[C@H](CO)[C@H]4O)[C@H](O)[C@@H](O)[C@@H]3O [Saccharide A, anhydrous crystalline cyclotetrasaccharide]
moisture content (%) by the Karl Fisher method ([11]; relative humidity 60%, 0 days after treatment): 0.2%
moisture content (%) by the Karl Fisher method ([11]; relative humidity 60%, 1 day after treatment): 10.2%
moisture content (%) by the Karl Fisher method ([11]; relative humidity 60%, 2 days after treatment): 10.3%
moisture content (%) by the Karl Fisher method ([11]; relative humidity 60%, 3 days after treatment): 10.3%
moisture content (%) by the Karl Fisher method ([11]; relative humidity 60%, 7 days after treatment): 10.4%
moisture content (%) by the Karl Fisher method ([11]; relative humidity 75%, 0 days after treatment): 0.2%
moisture content (%) by the Karl Fisher method ([11]; relative humidity 75%, 1 day after treatment): 13.9%
moisture content (%) by the Karl Fisher method ([11]; relative humidity 75%, 2 days after treatment): 14.4%
moisture content (%) by the Karl Fisher method ([11]; relative humidity 75%, 3 days after treatment): 14.4%
moisture content (%) by the Karl Fisher method ([11]; relative humidity 75%, 7 days after treatment): 14.3%
moisture absorption level, % of its weight ([11]; relative humidity of 60%, listed as anhydrous crystalline cyclotetrasaccharide): about 10%
moisture absorption level, % of its weight ([11]; relative humidity of 75%): about 14%
bacterial contamination in gyuhi (Aspergillus niger): found no bacterial contamination
Water content (before use) [12]: 0.2

[Al+3] [Al^3+]
Relative activity (%) [13]: 100%

[Mg+2] [Mg^2+]
Relative activity (%) [14]: 100%

[Fe+2] [Fe^2+]
Relative activity (%) [13]: 100%
